From US20080161340A1, “Tetrahydroquinilinones, tetrahydronaphthyridones and derivatives thereof” (priority 2006, published 2008)

Columns and labels:
Type in all cases: cell-based
[1] = molecular target: T1, rCB2 (Rattus norvegicus, UniProt Q9QZN9); assay: cAMP assay, rCB2 in Table 7, agonist/inverse agonist; settings: intracellular cAMP; + agonist, − inverse agonist
T1 sequence (Q9QZN9 1-360): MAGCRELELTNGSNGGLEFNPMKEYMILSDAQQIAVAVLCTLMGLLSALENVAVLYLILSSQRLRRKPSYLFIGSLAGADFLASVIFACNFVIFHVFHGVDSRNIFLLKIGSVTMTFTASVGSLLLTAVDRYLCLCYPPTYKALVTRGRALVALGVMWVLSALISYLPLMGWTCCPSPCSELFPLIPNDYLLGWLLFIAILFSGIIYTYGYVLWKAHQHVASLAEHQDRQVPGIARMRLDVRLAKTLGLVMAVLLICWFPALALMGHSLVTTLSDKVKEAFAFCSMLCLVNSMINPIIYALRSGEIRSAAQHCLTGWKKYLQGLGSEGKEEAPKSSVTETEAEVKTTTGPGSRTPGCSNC
Description: (§1) Receptor mediated responses were determined by measuring changes in intracellular cAMP using LANCE cAMP detection kit (cat #AD0264, PerkinElmer, Wellesley, Mass.) based on time-resolved fluorescence resonance energy transfer (TR-FRET). Changes in cAMP were determined in cells pre-incubated with IBMX (isobutyl methylxanthine) and prestimulated with NKH-477 (a water soluble forskolin derivative, cat #1603, Tocris, Ellisville, Mo.) to increase basal cAMP levels as detailed below.
(§2) On the day of the experiment, cells were spun at low speed for 5 min at room temperature. The supernatant was removed and cells were resuspended in stimulation buffer (Hanks Buffered Salt Solution/5 mM HEPES, containing 0.5 mM IBMX (cat #17018, Sigma) and 0.02% BSA (PerkinElmer, cat #CR84-100)). Cell clumps were removed by filtering through cell strainer 40 μm (BD Falcon, Discovery Labware, Bedford, Mass.) and diluted to 2×10^5 cells/mL. Antibody supplied with the LANCE cAMP immunoassay kit was then added according to the manufacturer's instructions. An aliquot of cells was taken for un-induced controls. To the remaining cells was added NKH-477 (a water soluble forskolin derivative, Tocris cat #1603) to a final concentration of 2-8 μM. Cells were then incubated for 30 min at room temperature prior to adding to Proxiplates containing test compounds (final DMSO concentration was less than 0.5%) with a Multidrop bulk dispenser, followed by a sixty minute incubation at room temperature. The response was stopped by addition of the detection mix supplied with the LANCE kit.
(§3) The reagents were allowed to equilibrate for three hours prior to reading on an Envision multi-mode detector (PerkinElmer). TR-FRET was measured using a 330-380 nm excitation filter, a 665 nm emission filter, dichroic mirror 380 nm and Z=1 mm.
(§4) Cyclic AMP concentrations in each well were back-calculated from a cAMP standard curve run concurrently during each assay. Each plate contained 16 wells of forskolin stimulated cells and 16 wells of forskolin plus CP55,940-treated. CP55,940-treated cells were treated with CP55,940 (Tocris cat. # 0949) at 1 μm and the maximal response was used as the full range (100%) standard. WIN55,212 (Tocris cat. # 1038) was used as an internal standard. Concentrations of cAMP were expressed as a percent of the difference of these two groups of wells. Concentration-response data including ECso (the concentration of compound producing 50% of the maximal response) and intrinsic activity (the percent maximal activation compared to full activation by CP55,940) were determined using a four-parameter non-linear regression algorithm (Xlfit equation 251, IDBS).

[2] = molecular target: T2, hCB1 (Homo sapiens, UniProt P21554); assay: cAMP assay (LANCE TR-FRET) in CHO-K1 cells stably expressing hCB1, agonist/inverse agonist; settings: intracellular cAMP, CHO-K1 hCB1 cells prestimulated with NKH-477, + agonist, − inverse agonist; for EC50: read-out: hCB1 EC50 class
T2 construct: host or cells: CHO-K1
Description: (§5) The ability of compounds to act as agonists or inverse agonists at human CB2 and CB1 receptors (hCB2, hCB1, respectively) was determined by measuring changes in intracellular cAMP levels. Chinese Hamster Ovary (CHO-K1) cell lines stably expressing hCB2 (Genebank: X74328) or hCB1 (Genebank: X54937) were purchased from Euroscreen (Gosselies, Belgium).
(§6) Cell lines were grown in suspension in EX-CELL 302 CHO Serum-free medium (Sigma, cat #14324C) supplemented with 1% Fetal Bovine Serum, glutamine and non-essential amino-acids under 0.4 mg/mL G418 selection.
as §1, §2, §3, §4

[3] = molecular target: T3, hCB2 (Homo sapiens, UniProt P34972); assay: cAMP assay (LANCE TR-FRET) in CHO-K1 cells stably expressing hCB2, agonist/inverse agonist; settings: intracellular cAMP, CHO-K1 hCB2 cells prestimulated with NKH-477; + agonist, − inverse agonist
T3 construct: host or cells: CHO-K1
Description: as §5, §6, §1, §2, §3, §4

T3 sequence (P34972 whole entry): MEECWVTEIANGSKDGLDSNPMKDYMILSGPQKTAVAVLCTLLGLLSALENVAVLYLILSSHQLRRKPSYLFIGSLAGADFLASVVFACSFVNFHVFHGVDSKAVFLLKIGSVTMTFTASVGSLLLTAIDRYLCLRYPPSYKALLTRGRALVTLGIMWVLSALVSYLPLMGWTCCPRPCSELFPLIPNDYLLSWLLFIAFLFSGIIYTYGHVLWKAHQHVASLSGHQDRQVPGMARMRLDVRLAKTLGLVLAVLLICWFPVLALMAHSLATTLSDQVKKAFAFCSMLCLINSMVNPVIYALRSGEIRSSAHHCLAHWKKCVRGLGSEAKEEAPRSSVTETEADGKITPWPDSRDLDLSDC
T2 sequence (P21554 whole entry): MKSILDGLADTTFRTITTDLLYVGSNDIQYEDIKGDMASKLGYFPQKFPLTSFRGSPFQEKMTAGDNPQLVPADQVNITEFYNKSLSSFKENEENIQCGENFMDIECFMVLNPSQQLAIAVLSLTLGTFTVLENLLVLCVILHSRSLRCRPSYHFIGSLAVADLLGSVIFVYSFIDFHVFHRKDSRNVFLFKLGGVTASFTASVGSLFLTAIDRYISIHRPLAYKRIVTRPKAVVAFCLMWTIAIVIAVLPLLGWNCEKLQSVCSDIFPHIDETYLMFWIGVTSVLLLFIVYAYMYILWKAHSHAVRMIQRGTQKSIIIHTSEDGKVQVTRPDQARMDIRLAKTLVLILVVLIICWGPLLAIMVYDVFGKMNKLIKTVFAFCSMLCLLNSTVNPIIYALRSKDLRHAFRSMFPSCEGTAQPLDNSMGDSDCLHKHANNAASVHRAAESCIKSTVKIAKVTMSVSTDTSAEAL

## O=c1c(-c2ccccc2)cc2c(n1CC1CC1)CCCC2 [Compound 2, 1-(cyclopropylmethyl)-3-phenyl-5,6,7,8-tetrahydroquinolin-2(1H)-one]
[1]
  rCB2 EC50 class: +C
[2]
  EC50: > 10 µM
[3]
  hCB2 EC50 class: +B

## CC(=O)N1CCc2c(cc(-c3ccc(C(F)(F)F)cc3)c(=O)n2CC2CCC2)C1 [Compound 44, 6-acetyl-1-(cyclobutylmethyl)-3-(4-(trifluoromethyl)phenyl)-5,6,7,8-tetrahydro-1,6-naphthyridin-2(1H)-one]
[1]
  rCB2 EC50 class: +B
[2]
  EC50: > 10 µM
[3]
  hCB2 EC50 class: +B

## O=c1c(-c2ccc(Cl)cc2)cc2c(n1CC1CCC1)CCCC2 [Compound 19, 3-(4-chlorophenyl)-1-(cyclobutylmethyl)-5,6,7,8-tetrahydroquinolin-2(1H)-one]
[1]
  rCB2 EC50 class: +B
[2]
  EC50: > 10 µM
[3]
  hCB2 EC50 class: +B

## COc1cccc(-c2cc3c(n(CC4CCC4)c2=O)CCN(S(C)(=O)=O)C3)c1 [Compound 52, 1-(cyclobutylmethyl)-3-(3-methoxyphenyl)-6-(methylsulfonyl)-5,6,7,8-tetrahydro-1,6-naphthyridin-2(1H)-one]
[1]
  rCB2 EC50 class: +A
[2]
  EC50: > 10 µM
[3]
  hCB2 EC50 class: +B

## O=c1c(C2=NN(c3ccccc3)C(c3ccco3)C2)cc2c(n1CC1CCC1)CCCC2 (stereo not drawn) [Compound 21, 1-(cyclobutylmethyl)-3-(5-(furan-2-yl)-1-phenyl-4,5-dihydro-1H-pyrazol-3-yl)-5,6,7,8-tetrahydroquinolin-2(1H)-one]
[3]
  hCB2 EC50 class: +C

## O=c1c(-c2cccc(Cl)c2)cc2c(n1CC1CCC1)CCCC2 [Compound 8, 3-(3-chlorophenyl)-1-(cyclobutylmethyl)-5,6,7,8-tetrahydroquinolin-2(1H)-one]
[1]
  rCB2 EC50 class: +A
[2]
  EC50: > 10 µM
[3]
  hCB2 EC50 class: +A

## CC(=O)N1CCc2c(cc(-c3cccnc3)c(=O)n2CC2CCC2)C1 [Compound 46, 6-acetyl-1-(cyclobutylmethyl)-3-(pyridin-3-yl)-5,6,7,8-tetrahydro-1,6-naphthyridin-2(1H)-one]
[1]
  rCB2 EC50 class: +B
[2]
  EC50: > 10 µM
[3]
  hCB2 EC50 class: +B

## COc1ncc(-c2cc3c(n(CC4CCC4)c2=O)CCCC3)c(OC)n1 [Compound 29, 1-(cyclobutylmethyl)-3-(2,4-dimethoxypyrimidin-5-yl)-5,6,7,8-tetrahydroquinolin-2(1H)-one]
[1]
  rCB2 EC50 class: +A
[2]
  EC50: > 10 µM
[3]
  hCB2 EC50 class: +B

## CS(=O)(=O)N1CCc2c(cc(-c3ccc(C(F)(F)F)cc3)c(=O)n2CC2CCC2)C1 [Compound 43, 1-(cyclobutylmethyl)-6-(methylsulfonyl)-3-(4-(trifluoromethyl)phenyl)-5,6,7,8-tetrahydro-1,6-naphthyridin-2(1H)-one]
[1]
  rCB2 EC50 class: +B
[2]
  EC50: > 10 µM
[3]
  hCB2 EC50 class: +A

## CC(C)C(=O)N1CCc2c(cc(-c3cccc(Cl)c3)c(=O)n2CC2CC2)C1 [Compound 51, 3-(3-chlorophenyl)-1-(cyclopropylmethyl)-6-isobutyryl-5,6,7,8-tetrahydro-1,6-naphthyridin-2(1H)-one]
[3]
  hCB2 EC50 class: +B

## O=c1c(-c2cccc(F)c2)cc2c(n1CC1CC1)CCCC2 [Compound 4, 1-(cyclopropylmethyl)-3-(3-fluorophenyl)-5,6,7,8-tetrahydroquinolin-2(1H)-one]
[1]
  rCB2 EC50 class: +C
[2]
  hCB1 EC50 class: +C

## O=c1c(-c2ccc(C(F)(F)F)cc2)cc2c(n1CC1CCC1)CCCC2 [Compound 7, 1-(cyclobutylmethyl)-3-(4-(trifluoromethyl)phenyl)-5,6,7,8-tetrahydroquinolin-2(1H)-one]
[1]
  rCB2 EC50 class: +A
[2]
  EC50: > 10 µM
[3]
  hCB2 EC50 class: +A

## O=c1c(-c2ccc(C(F)(F)F)cc2)cc2c(n1CC1CCC1)CCN(S(=O)(=O)c1cccc(F)c1)C2 [Compound 57, 1-(cyclobutylmethyl)-6-(3-fluorophenylsulfonyl)-3-(4-(trifluoromethyl)phenyl)-5,6,7,8-tetrahydro-1,6-naphthyridin-2(1H)-one]
[1]
  rCB2 EC50 class: −B

## CC(C)(C)OC(=O)N1CCc2c(cc(-c3ccc(C(F)(F)F)cc3)c(=O)n2CC2CCC2)C1 [Compound 36, tert-butyl 3-(4-(trifluoromethyl)phenyl)-1-(cyclobutylmethyl)-2-oxo-1,2,7,8-tetrahydro-1,6-naphthyridine-6(5H)-carboxylate]
[1]
  rCB2 EC50 class: −C

## O=c1c(-c2ccc(C(F)(F)F)cc2)cc2c(n1CC1CCC1)CCN(S(=O)(=O)c1ccccc1)C2 [Compound 56, 1-(cyclobutylmethyl)-6-(phenylsulfonyl)-3-(4-(trifluoromethyl)phenyl)-5,6,7,8-tetrahydro-1,6-naphthyridin-2(1H)-one]
[1]
  rCB2 EC50 class: −C
[2]
  hCB1 EC50 class: −B

## O=C(c1ccno1)N1CCc2c(cc(-c3ccc(C(F)(F)F)cc3)c(=O)n2CC2CCC2)C1 [Compound 45, 1-(cyclobutylmethyl)-6-(isoxazole-5-carbonyl)-3-(4-(trifluoromethyl)phenyl)-5,6,7,8-tetrahydro-1,6-naphthyridin-2(1H)-one]
[1]
  rCB2 EC50 class: −C
[2]
  EC50: > 10 µM

## CC(C)(C)OC(=O)N1CCc2c(cc(-c3cccc(Cl)c3)c(=O)n2CC2CCC2)C1 [Compound 35, tert-butyl 3-(3-chlorophenyl)-1-(cyclobutylmethyl)-2-oxo-1,2,7,8-tetrahydro-1,6-naphthyridine-6(5H)-carboxylate]
[1]
  rCB2 EC50 class: −B
[2]
  EC50: > 10 µM

## COc1ccncc1-c1cc2c(n(CC3CCC3)c1=O)CCCC2 [Compound 13, 1-(cyclobutylmethyl)-3-(4-methoxypyridin-3-yl)-5,6,7,8-tetrahydroquinolin-2(1H)-one]
[3]
  hCB2 EC50 class: +B

## O=c1c(-c2cn[nH]c2)cc2c(n1CC1CCC1)CCCC2 [Compound 28, 1-(cyclobutylmethyl)-3-(1H-pyrazol-4-yl)-5,6,7,8-tetrahydroquinolin-2(1H)-one]
[1]
  rCB2 EC50 class: −C
[2]
  EC50: > 10 µM

## COc1cccc(-c2cc3c(n(CC4CCC4)c2=O)CCN(C(C)=O)C3)c1 [Compound 55, 6-acetyl-1-(cyclobutylmethyl)-3-(3-methoxyphenyl)-5,6,7,8-tetrahydro-1,6-naphthyridin-2(1H)-one]
[1]
  rCB2 EC50 class: −C
[2]
  hCB1 EC50 class: −B

## Cc1noc(C)c1-c1cc2c(n(CC3CCC3)c1=O)CCCC2 [Compound 27, 1-(cyclobutylmethyl)-3-(3,5-dimethylisoxazol-4-yl)-5,6,7,8-tetrahydroquinolin-2(1H)-one]
[3]
  hCB2 EC50 class: +B

## CC(C)(C)OC(=O)N1CCc2c(cc(-c3cccnc3)c(=O)n2CC2CCC2)C1 [Compound 37, tert-butyl 1-(cyclobutylmethyl)-2-oxo-3-(pyridin-3-yl)-1,2,7,8-tetrahydro-1,6-naphthyridine-6(5H)-carboxylate]
[1]
  rCB2 EC50 class: −C

## O=c1c(-c2cccc(C(F)(F)F)c2)cc2c(n1CC1CCCCC1)CCCC2 [Compound 24, 1-(cyclohexylmethyl)-3-(3-(trifluoromethyl)phenyl)-5,6,7,8-tetrahydroquinolin-2(1H)-one]
[2]
  hCB1 EC50 class: +B
[3]
  hCB2 EC50 class: +A
